In patent publication US20230192661A1, “1, 4, 5, 6-TETRAHYDROPYRIMIDINE-2-AMINE DERIVATIVE” (UBE Corporation, priority 2020, published 2023):

What was measured:
[1] = test system: Human hepatic stellate cells; test: Active human hepatic stellate cell dedifferentiation test (decrease in ACTA2 mRNA expression); format: cell-based; settings: 3 days differentiation then 2 days with compound, read-out: IC50 (rate of decrease in ACTA2 mRNA expression)
Procedure: Human hepatic stellate cells (manufactured by ScienCell Research Laboratories, Inc., 5300) were suspended in DMEM containing 10% FBS and […] penicillin/streptomycin/amphotericin B to prepare a cell suspension of 0.5×10^5 cells/mL, which was regarded as cells at the start of differentiation. The cells at the start of differentiation were dispensed at 1 mL/well to a 12-well plate and cultured, for differentiation, for 3 days in a 5% CO2 incubator (37° C.).
The culture solution in each well was removed, and DMEM containing 10% FBS and 1% penicillin/streptomycin/amphotericin B supplemented with a test compound dissolved in DMSO (final DMSO concentration: 0.1%) was added at 1 mL/well. The resultant was further cultured for 2 days in a 5% CO2 incubator (37° C.). In Test Example 4, the same reagents as in Test Example 1 were used unless otherwise specified.
RNA in the cultured cells was extracted using NucleoSpin® RNA (manufactured by Takara Bio Inc., U0955C), and cDNA was further synthesized from the extracted RNA using Prime Script™ RT reagent Kit with gDNA Eraser (manufactured by Takara Bio Inc., RR047A). Real time PCR was performed using the synthesized cDNA, various primers and TB Green® Premix Ex Taq™ II (manufactured by Takara Bio Inc., RR820A) and using PCR Thermal Cycler Dice Real Time (manufactured by Takara Bio Inc., System Code TP910, Model Code TP900). The primers used were actin alpha 2, smooth muscle (ACTA2) primer (manufactured by Takara Bio Inc., HA136273) and glyceraldehyde-3-phosphate dehydrogenase (GAPDH) primer (manufactured by Takara Bio Inc., HA067812).
The amplification curve of PCR was analyzed by the comparative Ct method. The expression level of ACTA2 mRNA was corrected with the expression level of GAPDH mRNA. An ACTA2 mRNA expression level when DMSO was added instead of the test compound was defined as 100%, and an ACTA2 mRNA expression level in the cells at the start of differentiation was defined as 0%. The rate of decrease in ACTA2 mRNA expression by the test compound was calculated according to the following expression.
Rate of decrease in ACTA2 mRNA expression (%)=[1−{(ACTA2 mRNA expression level in the case of adding the test compound)−(ACTA2 mRNA expression level in the cells at the start of differentiation)}/{(ACTA2 mRNA expression level in the case of adding DMSO)−(ACTA2 mRNA expression level in the cells at the start of differentiation)}]×100
An IC50 value was calculated from the rate of decrease in ACTA2 mRNA expression by the test compound. A: IC50<10 nM, B: 10 nM≤IC50<50 nM, C: 50 nM≤IC50<100 nM, or D: IC50≥100 nM.

αvβ1 = target: T1, αvβ1 (UniProt G3HZ55+P06756); test: αvβ1 cell adhesion inhibition test (αv-transfected CHO cells on human fibronectin); format: cell-based; settings: human fibronectin coating, 1 mM MnCl2, 1 hour, read-out: IC50 (rate of inhibition of cell adhesion, αvβ1)
T1 construct: expressed in transfected cells; host or cells: CHO cells deficient in α5 gene, transfected with αv gene
Procedure: Test Example 1 was performed by partially modifying the method of Reed et al. (Sci Transl Med., 7 (288), 288ra79, 2015).
Human fibronectin (manufactured by Sigma-Aldrich Co. LLC, F0895) was prepared at 1.25 μg/mL with phosphate buffered saline (PBS), dispensed at 100 μL/well to a 96-well plate, and left standing overnight. The plate was washed with Hanks' balanced salt solution (HBSS), then subjected to blocking treatment with Dulbecco's modified Eagle medium (DMEM) containing 1% bovine serum-derived albumin (BSA) (FUJIFILM Wako Pure Chemical Corp., for cell culture, 017-22231), and used as a coated plate in the adhesion test.
αv-transfected cells (CHO cells deficient in α5 gene and transfected with αv gene) cultured in Ham's F-12 medium (FUJIFILM Wako Pure Chemical Corp., 087-08335) containing 10% fetal bovine serum (FBS), 1% penicillin/streptomycin/amphotericin B (manufactured by Thermo Fisher Scientific, Inc., 15240), 1 mM GlutaMAX Supplement (manufactured by Thermo Fisher Scientific, Inc., 35050), and 400 μg/mL hygromycin B (FUJIFILM Wako Pure Chemical Corp., 080-07683) were recovered and suspended in DMEM containing 1 mM MnCl2 (manufactured by Sigma-Aldrich Co. LLC, M1787) to prepare a cell suspension. A test compound dissolved in DMSO was added thereto.
The cell suspension of 1×10^6 cells/mL containing the test compound was added at 100 μL/well to the coated plate and left standing for 1 hour in a 5% CO2 incubator (37° C.). One hour later, the supernatant was removed, and the plate was washed with HBSS. The cells that adhered to each well in the plate were stained with crystal violet, and the cells were lysed, followed by absorbance measurement. Inhibition without substrate coating was defined as 100% inhibition, and inhibition when DMSO was added instead of the test compound was defined as 0% inhibition. The rate of inhibition of cell adhesion by the test compound was calculated according to the following expression.
Rate of inhibition of cell adhesion (%)=[1−{(Absorbance in the case of adding the test compound)−(Absorbance without substrate coating)}/{(Absorbance in the case of adding DMSO)−(Absorbance without substrate coating)}]×100
An IC50 value was calculated from the rate of inhibition of cell adhesion by the test compound. A: IC50<3 nM, B: 3 nM≤IC50<10 nM, C: 10 nM≤IC50<30 nM, D: 30 nM≤IC50<100 nM, or E: IC50≥100 nM.

T1 sequence (P06756 31-889 limits assumed): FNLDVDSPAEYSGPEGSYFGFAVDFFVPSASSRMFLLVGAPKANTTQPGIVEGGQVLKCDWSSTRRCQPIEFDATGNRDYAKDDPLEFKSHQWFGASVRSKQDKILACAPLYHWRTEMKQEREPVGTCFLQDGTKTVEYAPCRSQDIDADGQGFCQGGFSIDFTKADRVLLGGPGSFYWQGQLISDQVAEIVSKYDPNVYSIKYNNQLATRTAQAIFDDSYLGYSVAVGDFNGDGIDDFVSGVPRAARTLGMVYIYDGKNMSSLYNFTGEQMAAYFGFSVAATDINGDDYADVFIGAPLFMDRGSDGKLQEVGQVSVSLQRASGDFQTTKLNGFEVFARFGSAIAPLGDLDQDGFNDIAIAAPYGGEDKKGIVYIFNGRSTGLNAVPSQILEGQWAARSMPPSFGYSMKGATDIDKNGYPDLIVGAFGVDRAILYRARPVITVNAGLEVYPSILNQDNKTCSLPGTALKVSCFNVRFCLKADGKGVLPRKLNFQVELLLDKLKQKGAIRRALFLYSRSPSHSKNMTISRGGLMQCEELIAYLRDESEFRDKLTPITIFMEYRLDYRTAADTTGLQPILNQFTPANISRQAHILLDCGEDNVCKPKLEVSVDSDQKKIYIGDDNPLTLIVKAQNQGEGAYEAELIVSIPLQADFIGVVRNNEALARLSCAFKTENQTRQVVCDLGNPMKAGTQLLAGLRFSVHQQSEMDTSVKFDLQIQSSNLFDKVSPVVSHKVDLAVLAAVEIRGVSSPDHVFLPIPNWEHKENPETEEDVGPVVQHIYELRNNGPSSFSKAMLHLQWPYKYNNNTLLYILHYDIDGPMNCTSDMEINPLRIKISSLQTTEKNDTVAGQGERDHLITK
T1 sequence (P06756 891-1048 limits assumed): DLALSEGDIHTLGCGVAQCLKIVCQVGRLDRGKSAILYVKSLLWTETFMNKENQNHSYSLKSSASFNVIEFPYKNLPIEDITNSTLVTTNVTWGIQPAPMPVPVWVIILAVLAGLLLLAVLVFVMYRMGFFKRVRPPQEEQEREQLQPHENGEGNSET
T1 sequence (G3HZ55 21-798): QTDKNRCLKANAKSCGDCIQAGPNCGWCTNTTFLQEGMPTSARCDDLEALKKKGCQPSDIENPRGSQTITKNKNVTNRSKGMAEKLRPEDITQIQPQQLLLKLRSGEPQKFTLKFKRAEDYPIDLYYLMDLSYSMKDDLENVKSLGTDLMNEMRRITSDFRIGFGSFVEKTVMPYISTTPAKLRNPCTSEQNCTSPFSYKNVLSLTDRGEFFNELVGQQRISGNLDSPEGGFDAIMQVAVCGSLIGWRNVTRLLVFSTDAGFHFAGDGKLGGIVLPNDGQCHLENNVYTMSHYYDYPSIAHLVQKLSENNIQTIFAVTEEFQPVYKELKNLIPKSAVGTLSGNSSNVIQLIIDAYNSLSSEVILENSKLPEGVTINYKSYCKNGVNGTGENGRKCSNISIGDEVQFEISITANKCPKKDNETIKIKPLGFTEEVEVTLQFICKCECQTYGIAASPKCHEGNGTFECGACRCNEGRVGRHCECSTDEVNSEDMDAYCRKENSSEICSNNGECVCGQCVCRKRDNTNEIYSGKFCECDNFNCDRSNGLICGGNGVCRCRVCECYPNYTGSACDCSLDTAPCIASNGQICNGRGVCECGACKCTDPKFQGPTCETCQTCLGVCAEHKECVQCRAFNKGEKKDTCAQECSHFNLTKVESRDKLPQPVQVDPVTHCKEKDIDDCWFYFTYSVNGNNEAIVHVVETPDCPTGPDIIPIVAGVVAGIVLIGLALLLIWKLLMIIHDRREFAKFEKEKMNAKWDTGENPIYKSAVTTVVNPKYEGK

Structure (SMILES) | IC50 [1] | IC50 (αvβ1)
O=C(O)C[C@H](NC(=O)CNC(=O)c1cc(NC2=NCC(F)CN2)c2cn[nH]c2c1)c1cc(Cl)cc(C(F)(F)F)c1 (stereo partly drawn) [Example 1-(b), (3S)-3-(3-chloro-5-(trifluoromethyl)phenyl)-3-(2-(4-((5-fluoro-1,4,5,6-tetrahydropyrimidin-2-yl)amino)-1H-indazole-6-carboxamido)acetamido)propanoic acid] | < 0.01 µM | < 0.003 µM
O=C(O)C[C@H](NC(=O)CNC(=O)c1cc(NC2=NCC(F)CN2)c2cn[nH]c2c1)c1cc(Br)cc(C(F)(F)F)c1 (stereo partly drawn) [Example 2-(b), (3S)-3-(3-bromo-5-(trifluoromethyl)phenyl)-3-(2-(4-((5-fluoro-1,4,5,6-tetrahydropyrimidin-2-yl)amino)-1H-indazole-6-carboxamido)acetamido)propanoic acid] | 0.01 to 0.05 µM | 0.003 to 0.01 µM
O=C(O)C[C@H](NC(=O)CNC(=O)c1cc(NC2=NCC(F)CN2)c2cn[nH]c2c1)c1cc(I)cc(C(F)(F)F)c1 (stereo partly drawn) [Example 3-(b), (3S)-3-(2-(4-((5-fluoro-1,4,5,6-tetrahydropyrimidin-2-yl)amino)-1H-indazole-6-carboxamido)acetamido)-3-(3-iodo-5-(trifluoromethyl)phenyl)propanoic acid] | 0.01 to 0.05 µM | 0.003 to 0.01 µM
Cc1cc([C@H](CC(=O)O)NC(=O)CNC(=O)c2cc(NC3=NCC(F)CN3)c3cn[nH]c3c2)cc(C(F)(F)F)c1 (stereo partly drawn) [Example 4-(b), (3S)-3-(2-(4-((5-fluoro-1,4,5,6-tetrahydropyrimidin-2-yl)amino)-1H-indazole-6-carboxamido)acetamido)-3-(3-methyl-5-(trifluoromethyl)phenyl)propanoic acid] | 0.01 to 0.05 µM | 0.003 to 0.01 µM
COc1cc([C@H](CC(=O)O)NC(=O)CNC(=O)c2cc(NC3=NCC(F)CN3)c3cn[nH]c3c2)cc(C(F)(F)F)c1 (stereo partly drawn) [Example 5-(b), (3S)-3-(2-(4-((5-fluoro-1,4,5,6-tetrahydropyrimidin-2-yl)amino)-1H-indazole-6-carboxamido)acetamido)-3-(3-methoxy-5-(trifluoromethyl)phenyl)propanoic acid] | < 0.01 µM | < 0.003 µM
O=C(O)C[C@H](NC(=O)CNC(=O)c1cc(NC2=NCC(F)CN2)c2cn[nH]c2c1)c1cc(Cl)ccc1F (stereo partly drawn) [Example 22-(b), (3S)-3-(5-chloro-2-fluorophenyl)-3-(2-(4-((5-fluoro-1,4,5,6-tetrahydropyrimidin-2-yl)amino)-1H-indazole-6-carboxamido)acetamido)propanoic acid] |  | 0.01 to 0.03 µM
O=C(O)C[C@H](NC(=O)CNC(=O)c1cc(NC2=NCC(F)CN2)c2cn[nH]c2c1)c1cc(Br)ccc1F (stereo partly drawn) [Example 23-(b), (3S)-3-(5-bromo-2-fluorophenyl)-3-(2-(4-((5-fluoro-1,4,5,6-tetrahydropyrimidin-2-yl)amino)-1H-indazole-6-carboxamido)acetamido)propanoic acid] |  | < 0.003 µM
O=C(O)C[C@H](NC(=O)CNC(=O)c1cc(NC2=NCC(F)CN2)c2cn[nH]c2c1)c1ccc(F)c(OC(F)F)c1 (stereo partly drawn) [Example 27-(b), (3S)-3-(3-(difluoromethoxy)-4-fluorophenyl)-3-(2-(4-((5-fluoro-1,4,5,6-tetrahydropyrimidin-2-yl)amino)-1H-indazole-6-carboxamido)acetamido)propanoic acid] |  | < 0.003 µM
O=C(O)C[C@H](NC(=O)CNC(=O)c1cc(NC2=NCC(F)CN2)c2cn[nH]c2c1)c1cc(OC(F)F)cc(-n2cccn2)c1 (stereo partly drawn) [Example 29-(b), (3S)-3-(3-(difluoromethoxy)-5-(1H-pyrazol-1-yl)phenyl)-3-(2-(4-((5-fluoro-1,4,5,6-tetrahydropyrimidin-2-yl)amino)-1H-indazole-6-carboxamido)acetamido)propanoic acid] |  | < 0.003 µM
Cc1cc(C)n(-c2cccc([C@H](CC(=O)O)NC(=O)CNC(=O)c3cc(NC4=NCC(F)CN4)c4cn[nH]c4c3)c2)n1 (stereo partly drawn) [Example 44-(b), (3S)-3-(3-(3,5-dimethyl-1H-pyrazol-1-yl)phenyl)-3-(2-(4-((5-fluoro-1,4,5,6-tetrahydropyrimidin-2-yl)amino)-1H-indazole-6-carboxamido)acetamido)propanoic acid] |  | < 0.003 µM
O=C(O)C[C@H](NC(=O)CNC(=O)c1cc(NC2=NCC(F)CN2)c2cn[nH]c2c1)c1cccc(N2CCOCC2)c1 (stereo partly drawn) [Example 45-(b), (3S)-3-(2-(4-((5-fluoro-1,4,5,6-tetrahydropyrimidin-2-yl)amino)-1H-indazole-6-carboxamido)acetamido)-3-(3-morpholinophenyl)propanoic acid] |  | < 0.003 µM
O=C(O)C[C@H](NC(=O)CNC(=O)c1cc(NC2=NCC(F)CN2)c2cn[nH]c2c1)c1ccc(OC(F)F)cc1 (stereo partly drawn) [Example 46-(b), (3S)-3-(4-(difluoromethoxy)phenyl)-3-(2-(4-((5-fluoro-1,4,5,6-tetrahydropyrimidin-2-yl)amino)-1H-indazole-6-carboxamido)acetamido)propanoic acid] |  | 0.003 to 0.01 µM
O=C(O)C[C@H](NC(=O)CNC(=O)c1cc(NC2=NCC(F)CN2)c2cn[nH]c2c1)c1ccc(C(F)(F)F)cc1 (stereo partly drawn) [Example 47-(b), (3S)-3-(2-(4-((5-fluoro-1,4,5,6-tetrahydropyrimidin-2-yl)amino)-1H-indazole-6-carboxamido)acetamido)-3-(4-(trifluoromethyl)phenyl)propanoic acid] |  | 0.003 to 0.01 µM
O=C(O)C[C@H](NC(=O)CNC(=O)c1cc(NC2=NCC(O)CN2)c2cn[nH]c2c1)c1cc(Cl)cc(C(F)(F)F)c1 (stereo partly drawn) [Example 50-(b), (3S)-3-(3-chloro-5-(trifluoromethyl)phenyl)-3-(2-(4-((5-hydroxy-1,4,5,6-tetrahydropyrimidin-2-yl)amino)-1H-indazole-6-carboxamido)acetamido)propanoic acid] |  | 0.01 to 0.03 µM
O=C(O)C[C@H](NC(=O)CNC(=O)c1cc(NC2=NCCCN2)c2cn[nH]c2c1)c1cc(Cl)cc(C(F)(F)F)c1 [Example 51-(b), (S)-3-(3-chloro-5-(trifluoromethyl)phenyl)-3-(2-(4-((1,4,5,6-tetrahydropyrimidin-2-yl)amino)-1H-indazole-6-carboxamido)acetamido)propanoic acid] |  | 0.03 to 0.1 µM
